Data from ChEMBL document CHEMBL1201862, “PubChem BioAssay data set” (2004).
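The compound was tested at five concentrations on cells cultured in 96-well plates, with a 48-hour exposure period. At the GI50, growth is halved.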 The source made the active and inactive calls. No stated cut-off is given here; in the data, active = GI50 up to about 1.1 µM and inactive = higher.

Legend:
Assay in all cases: NCI tumour cell line growth inhibition, 48 h
[1] = tested on: ACHN
[2] = tested on: CAKI-1
[3] = tested on: COLO 205
[4] = tested on: HL-60
[5] = tested on: Hs-578T
[6] = tested on: LOX IMVI
[7] = tested on: M14
[8] = tested on: MCF7
[9] = tested on: MDA-MB-231
[10] = tested on: NCI-H226
[11] = tested on: NCI-H522
[12] = tested on: NCI/ADR-RES
[13] = tested on: OVCAR-8
[14] = tested on: RXF 393
[15] = tested on: SF-268
[16] = tested on: SK-OV-3
[17] = tested on: U-251
[18] = tested on: UACC-62
[19] = tested on: MDA-N
[20] = tested on: SNB-75

SMILES | GI50 [1] | GI50 [2] | GI50 [3] | GI50 [4] | GI50 [5] | GI50 [6] | GI50 [7] | GI50 [8] | GI50 [9] | GI50 [10] | GI50 [11] | GI50 [12] | GI50 [13] | GI50 [14] | GI50 [15] | GI50 [16] | GI50 [17] | GI50 [18] | GI50 [19] | GI50 [20]
O=C1c2cc(Br)ccc2-c2ccc3c4ccc5c6c(ccc(c7ccc1c2c73)c64)C(=O)c1cc(Br)ccc1-5 | > 100 µM (inactive) | > 100 µM (inactive) | > 100 µM (inactive) | 25.8 µM (inactive) | > 100 µM (inactive) | > 100 µM (inactive) | > 100 µM (inactive) | > 100 µM (inactive) | > 100 µM (inactive) | > 100 µM (inactive) | > 100 µM (inactive) | > 100 µM (inactive) | > 100 µM (inactive) | > 100 µM (inactive) | > 100 µM (inactive) | > 100 µM (inactive) | > 100 µM (inactive) | > 100 µM (inactive) |  | 
CCOC(=O)CCCc1cc(O)c2c(C)c3[nH]c4ccc(Cl)cc4c3c(C)c2n1 | 24.3 µM (inactive) | 24.9 µM (inactive) | 41.8 µM (inactive) | 24 µM (inactive) |  | 38.7 µM (inactive) | 34.9 µM (inactive) | 15.9 µM (inactive) | 23.9 µM (inactive) | 19.1 µM (inactive) |  | 23.4 µM (inactive) | 24.9 µM (inactive) | 12.7 µM (inactive) | 26.2 µM (inactive) |  | 22.9 µM (inactive) |  | 34.9 µM (inactive) | 25.9 µM (inactive)
COc1ccc(O[C@H](COCc2ccccc2)C[C@@H]2COC(C)(C)O2)cc1 | > 100 µM (inactive) | > 100 µM (inactive) | > 100 µM (inactive) |  |  | > 100 µM (inactive) | > 100 µM (inactive) | > 100 µM (inactive) | > 100 µM (inactive) | > 100 µM (inactive) | > 100 µM (inactive) | > 100 µM (inactive) | > 100 µM (inactive) | > 100 µM (inactive) | > 100 µM (inactive) | > 100 µM (inactive) | > 100 µM (inactive) | > 100 µM (inactive) | > 100 µM (inactive) | > 100 µM (inactive)
O=C1N[C@@H]2O[C@H](CNC(=O)c3cc(Br)c[nH]3)C[C@]2(O)N1.O=C1N[C@H]2O[C@H](CNC(=O)c3cc(Br)c[nH]3)C[C@@]2(O)N1 | > 100 µM (inactive) | > 100 µM (inactive) | > 100 µM (inactive) | > 100 µM (inactive) | > 100 µM (inactive) |  | > 100 µM (inactive) | > 100 µM (inactive) | > 100 µM (inactive) | > 100 µM (inactive) | > 100 µM (inactive) | > 100 µM (inactive) | > 100 µM (inactive) |  | > 100 µM (inactive) | > 100 µM (inactive) | > 100 µM (inactive) | > 100 µM (inactive) |  | > 100 µM (inactive)
NC1=Nc2ncccc2C(=O)NN1 | > 10 µM (inactive) |  |  | > 10 µM (inactive) | 0.382 µM (active) | > 10 µM (inactive) | > 10 µM (inactive) | > 10 µM (inactive) | > 10 µM (inactive) | > 10 µM (inactive) |  |  | > 10 µM (inactive) | > 10 µM (inactive) | > 10 µM (inactive) | > 10 µM (inactive) | > 10 µM (inactive) | > 10 µM (inactive) | > 10 µM (inactive) | > 10 µM (inactive)
Cc1ccc(N(C)S(=O)(=O)c2ccccc2[N+](=O)[O-])cc1 | 58.9 µM (inactive) | 48.2 µM (inactive) | 57.3 µM (inactive) | > 100 µM (inactive) |  | 32.4 µM (inactive) | 21.6 µM (inactive) | 49 µM (inactive) | 41 µM (inactive) | 27.3 µM (inactive) | 24.6 µM (inactive) | 37.5 µM (inactive) | 48.6 µM (inactive) | 34.9 µM (inactive) | 48.4 µM (inactive) |  | 49.2 µM (inactive) |  | 34.5 µM (inactive) | 
O=c1[nH]c2ccccc2c(=O)n1/N=C/c1ccc(O)cc1 | > 100 µM (inactive) | > 100 µM (inactive) | > 100 µM (inactive) | > 100 µM (inactive) | 31.7 µM (inactive) | 60.4 µM (inactive) | > 100 µM (inactive) | > 100 µM (inactive) | 45.5 µM (inactive) | > 100 µM (inactive) |  | 50.9 µM (inactive) | 48.2 µM (inactive) |  | 42.2 µM (inactive) | > 100 µM (inactive) | 79.4 µM (inactive) | 42.4 µM (inactive) |  | 41.4 µM (inactive)
COc1cc2cc(C(=O)N3CC(CCl)c4ccc([N+](=O)[O-])cc43)[nH]c2c(OC)c1OC (stereo not drawn) | > 100 µM (inactive) | > 100 µM (inactive) | > 100 µM (inactive) | > 100 µM (inactive) | 74.5 µM (inactive) | > 100 µM (inactive) | > 100 µM (inactive) | > 100 µM (inactive) | > 100 µM (inactive) |  | > 100 µM (inactive) | > 100 µM (inactive) | > 100 µM (inactive) | > 100 µM (inactive) | > 100 µM (inactive) |  | > 100 µM (inactive) | > 100 µM (inactive) |  | > 100 µM (inactive)
CCOC(=O)c1ccc(N2C(=S)N(C(=O)c3ccccc3)C(=N/c3ccccc3)/C2=N\c2ccccc2)cc1 | 37.8 µM (inactive) | 27.6 µM (inactive) |  |  | 58.3 µM (inactive) |  | 27.2 µM (inactive) | 55.3 µM (inactive) |  | 22.9 µM (inactive) | 51.2 µM (inactive) | > 100 µM (inactive) | 24.7 µM (inactive) | > 10 µM (inactive) | > 100 µM (inactive) | 32 µM (inactive) | 25.5 µM (inactive) | 29.6 µM (inactive) | 26.5 µM (inactive) | 22.7 µM (inactive)
COc1ccc2c(O)c(Oc3ccc(Cl)cc3)c(=O)oc2c1 | 93.3 µM (inactive) | 54.3 µM (inactive) |  | > 100 µM (inactive) | > 100 µM (inactive) | > 100 µM (inactive) | 88.9 µM (inactive) | > 100 µM (inactive) | > 100 µM (inactive) | > 100 µM (inactive) | > 100 µM (inactive) |  | > 100 µM (inactive) | 35.3 µM (inactive) | > 100 µM (inactive) |  | 53.5 µM (inactive) |  | > 100 µM (inactive) | 99.5 µM (inactive)
n1onc2c1NC1Nc3nonc3NC1N2 (stereo not drawn) | > 100 µM (inactive) | > 100 µM (inactive) | > 100 µM (inactive) | > 100 µM (inactive) | > 100 µM (inactive) | > 100 µM (inactive) | > 100 µM (inactive) | > 100 µM (inactive) |  | > 100 µM (inactive) | > 100 µM (inactive) | > 100 µM (inactive) | > 100 µM (inactive) |  | > 100 µM (inactive) | > 100 µM (inactive) | > 100 µM (inactive) |  | > 100 µM (inactive) | > 100 µM (inactive)
C1=c2ccccc2=C2C(=C(c3ccccc3)C(c3ccccc3)=NN2c2ccccc2)S1 | > 100 µM (inactive) | > 100 µM (inactive) | > 100 µM (inactive) | > 100 µM (inactive) |  | > 100 µM (inactive) | > 100 µM (inactive) |  |  | > 100 µM (inactive) | > 100 µM (inactive) |  | > 100 µM (inactive) | > 100 µM (inactive) | > 100 µM (inactive) | > 100 µM (inactive) | 46.7 µM (inactive) | > 100 µM (inactive) |  | > 100 µM (inactive)
O=C(O)C12C3CCCC1C2CC3 (stereo not drawn) | > 100 µM (inactive) | > 100 µM (inactive) | > 100 µM (inactive) | > 100 µM (inactive) |  | > 100 µM (inactive) | > 100 µM (inactive) |  |  | > 100 µM (inactive) | > 100 µM (inactive) |  | > 100 µM (inactive) | > 100 µM (inactive) | > 100 µM (inactive) | > 100 µM (inactive) | > 100 µM (inactive) | > 100 µM (inactive) |  | > 100 µM (inactive)
CC(=O)O/C=C1/C[C@H]2[C@@H]3CCC4CC(C(C)=O)CC[C@]4(C)[C@H]3CC[C@]2(C)C1=O (stereo partly drawn) | > 100 µM (inactive) | > 100 µM (inactive) | > 10 µM (inactive) | 11.9 µM (inactive) |  | 33.3 µM (inactive) |  | 38 µM (inactive) | > 100 µM (inactive) | > 100 µM (inactive) | > 100 µM (inactive) |  |  | > 100 µM (inactive) | > 100 µM (inactive) | > 100 µM (inactive) | 40.6 µM (inactive) | > 100 µM (inactive) | 88.1 µM (inactive) | 
CCCCCC#COC1CC(C)CC[C@@H]1C(C)C (stereo partly drawn) | 78.2 µM (inactive) | 50.8 µM (inactive) | > 100 µM (inactive) | 23 µM (inactive) |  | 15.6 µM (inactive) | > 100 µM (inactive) |  |  | > 100 µM (inactive) | 24.5 µM (inactive) |  | > 100 µM (inactive) | 36.3 µM (inactive) | > 100 µM (inactive) | > 100 µM (inactive) | 42.3 µM (inactive) | 62.7 µM (inactive) |  | 75.9 µM (inactive)
O=C1C(Cl)=C(Cl)C(=O)N1c1ccc(F)cc1 [FLUOROIMIDE] | 18.2 µM (inactive) | 13.7 µM (inactive) | 14.4 µM (inactive) | 1.89 µM (inactive) | 28.1 µM (inactive) | 16.5 µM (inactive) | 19.5 µM (inactive) | 20.7 µM (inactive) | 17.1 µM (inactive) | 42.7 µM (inactive) | 3.81 µM (inactive) |  | 21.1 µM (inactive) | 22.5 µM (inactive) | 28.8 µM (inactive) | 28.6 µM (inactive) | 33.1 µM (inactive) | 14.7 µM (inactive) | 19.5 µM (inactive) | 12.8 µM (inactive)
